Assay results reported in the supplement of paper PMC10307832.

Tests used:
Assay in all cases: relative viability (nuclei count vs DMSO), 5 days (fraction); higher = more cells survive
[1] = compound: C1=CC2=C(C=C(C(=C2N=C1)O)N=NC3=CC4=C(C=C3)C=C(C=C4)S(=O)(=O)O)S(=O)(=O)O + Nc1nc2[nH]cc(CCc3ccc(C(=O)N[C@@H](CCC(=O)O)C(=O)O)cc3)c2c(=O)[nH]1 [Pemetrexed] (partner 0.2 µM)
Method in brief: (§1)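 Lung cancer cell lines were seeded in 1536-well plates and dosed by pin tool the next day, with either a single drug or a fixed anchor-drug dose combined with five library-drug doses (not always all listed) spaced in √10 steps. Five days later, one step fixed the cells and stained their nuclei (final 0.05% Triton X-100, 1% formaldehyde, 1 ug/ml Hoechst), and nuclei were counted on 4× images. Relative viability is the nuclei count in treated wells divided by the count in vehicle wells, and each value is the median of duplicate plates.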

AT-7519 + Trametinib = compound: O=C(NC1CCNCC1)c1n[nH]cc1NC(=O)c1c(Cl)cccc1Cl [AT-7519] + CC(=O)Nc1cccc(-n2c(=O)n(C3CC3)c(=O)c3c(Nc4ccc(I)cc4F)n(C)c(=O)c(C)c32)c1 [Trametinib] (partner 0.02 µM)
Method in brief: as §1

AT-7519 + Foretinib = compound: O=C(NC1CCNCC1)c1n[nH]cc1NC(=O)c1c(Cl)cccc1Cl [AT-7519] + COc1cc2c(Oc3ccc(NC(=O)C4(C(=O)Nc5ccc(F)cc5)CC4)cc3F)ccnc2cc1OCCCN1CCOCC1 [Foretinib] (partner 0.25 µM)
Method in brief: as §1

AT-7519 + Pemetrexed = compound: O=C(NC1CCNCC1)c1n[nH]cc1NC(=O)c1c(Cl)cccc1Cl [AT-7519] + Nc1nc2[nH]cc(CCc3ccc(C(=O)N[C@@H](CCC(=O)O)C(=O)O)cc3)c2c(=O)[nH]1 [Pemetrexed] (partner 0.2 µM)
Method in brief: as §1

Cell Line	relative viability ([1]; first compound 0.08 µM)	relative viability ([1]; first compound 0.253 µM)	relative viability ([1]; first compound 0.8 µM)	relative viability ([1]; first compound 2.53 µM)	relative viability ([1]; first compound 8 µM)	relative viability (AT-7519 + Trametinib; first compound 0.01 µM)	relative viability (AT-7519 + Trametinib; first compound 0.03162 µM)	relative viability (AT-7519 + Trametinib; first compound 0.3162 µM)	relative viability (AT-7519 + Trametinib; first compound 1 µM)	relative viability (AT-7519 + Foretinib; first compound 0.01 µM)	relative viability (AT-7519 + Foretinib; first compound 0.03162 µM)	relative viability (AT-7519 + Foretinib; first compound 0.3162 µM)	relative viability (AT-7519 + Foretinib; first compound 1 µM)	relative viability (AT-7519 + Pemetrexed; first compound 0.01 µM)	relative viability (AT-7519 + Pemetrexed; first compound 0.03162 µM)	relative viability (AT-7519 + Pemetrexed; first compound 0.3162 µM)	relative viability (AT-7519 + Pemetrexed; first compound 1 µM)
HARA	0.212	0.214	0.252	0.206	0.237	0.805	0.551	0.796	0.313	1.07	0.638	0.906	0.591	0.234	0.298	0.25	0.296
NCI-H2087	0.643	0.599	0.567	0.602	0.7	0.241	0.187	0.135	0.119	1.14	1.09	1.07	0.295	0.612	0.536	0.568	0.344
NCI-H1437	0.299	0.326	0.334	0.265	0.308	0.532	0.503	0.507	0.214	1.3	1.32	1.24	1.01	0.325	0.326	0.35	0.229
ChaGo-K-1	0.256	0.257	0.272	0.256	0.242	0.949	0.884	0.936	0.795	0.931	0.845	0.967	0.733	0.27	0.267	0.276	0.254
NCI-H650	1.04	0.922	0.956	0.936	0.791	1.02	0.924	1.04	0.348	1.04	0.923	1.01	1.08	1.07	1	0.931	1.25
COR-L23	0.206	0.202	0.2	0.199	0.192	0.83	0.643	0.469	0.103	1.19	0.799	0.992	0.507	0.182	0.184	0.211	0.173
COR-L 105	1.3	1.14	1.21	1.04	1.1	0.438	0.382	0.427	0.296	1.17	1.01	1.2	0.525	1.26	1.08	1.07	0.657
LK-2	0.312	0.224	0.212	0.269	0.283	0.643	0.67	0.716	0.271	1.04	1.16	–	0.95	0.305	0.259	0.212	0.201
201T	0.324	0.319	0.341	0.332	0.354	0.731	0.798	0.684	0.64	1.2	1.05	–	0.809	0.343	0.311	0.288	0.331
NCI-H596	0.557	0.452	0.52	0.493	0.486	0.86	0.811	0.662	0.662	0.922	0.834	0.897	0.731	0.473	0.501	0.459	0.513
H3255	0.545	0.576	0.559	0.556	0.57	0.53	0.546	0.715	0.574	0.901	0.876	0.906	0.794	0.559	0.589	0.499	0.503
NCI-H647	0.174	0.189	0.182	0.183	0.168	0.439	0.342	0.475	0.159	1.27	1.21	0.985	0.889	0.142	0.159	0.177	0.129
NCI-H2023	0.205	0.223	0.265	0.256	0.14	0.541	0.566	0.437	0.131	0.962	0.914	1.05	0.459	0.203	0.233	0.203	0.111
NCI-H23	0.681	0.648	0.669	0.579	0.693	0.338	0.355	0.33	0.164	0.928	0.981	0.887	0.461	0.563	0.734	0.591	0.494
NCI-H1944	0.61	0.559	0.57	0.634	0.395	0.423	0.481	0.362	0.302	0.899	0.855	0.84	0.662	0.633	0.593	0.602	0.511
NCI-H1793	1	0.844	0.799	0.841	0.888	0.492	0.489	0.433	0.218	0.679	0.646	0.726	0.488	0.752	0.882	0.647	0.693
NCI-H520	0.696	0.706	0.637	0.715	0.692	0.741	0.494	0.673	0.229	0.922	0.624	0.718	0.593	0.815	0.635	0.619	0.389
NCI-H460	0.0636	0.0585	0.066	0.0648	0.0698	0.193	0.155	0.129	0.0266	1.05	0.821	1.05	0.233	0.0626	0.0564	0.0558	0.0636
EKVX	0.41	0.369	0.393	0.397	0.388	0.326	0.312	0.525	0.3	0.75	0.902	0.996	0.773	0.423	0.342	0.246	0.463

Cell Line	relative viability ([1]; first compound 0.08 µM)	relative viability ([1]; first compound 0.253 µM)	relative viability ([1]; first compound 0.8 µM)	relative viability ([1]; first compound 2.53 µM)	relative viability ([1]; first compound 8 µM)	relative viability (AT-7519 + Trametinib; first compound 0.01 µM)	relative viability (AT-7519 + Trametinib; first compound 0.03162 µM)	relative viability (AT-7519 + Trametinib; first compound 0.3162 µM)	relative viability (AT-7519 + Trametinib; first compound 1 µM)	relative viability (AT-7519 + Foretinib; first compound 0.01 µM)	relative viability (AT-7519 + Foretinib; first compound 0.03162 µM)	relative viability (AT-7519 + Foretinib; first compound 0.3162 µM)	relative viability (AT-7519 + Foretinib; first compound 1 µM)	relative viability (AT-7519 + Pemetrexed; first compound 0.01 µM)	relative viability (AT-7519 + Pemetrexed; first compound 0.03162 µM)	relative viability (AT-7519 + Pemetrexed; first compound 0.3162 µM)	relative viability (AT-7519 + Pemetrexed; first compound 1 µM)
NCI-H358	0.159	0.16	0.162	0.163	0.171	0.127	0.13	0.253	0.0967	0.646	0.496	0.492	0.194	0.175	0.172	0.164	0.132
EPLC-272H	0.327	0.364	0.358	0.374	0.379	0.309	0.312	0.275	0.22	0.753	0.512	0.622	0.28	0.268	0.328	0.303	0.0761
NCI-H1395	0.814	0.816	0.68	0.763	0.782	1.16	1.04	0.799	0.499	0.991	1.12	0.961	0.786	0.847	0.896	0.899	0.558
NCI-H2126	0.671	0.641	0.689	0.723	0.75	0.583	0.594	0.554	0.44	1.08	1.24	0.838	1.12	0.711	0.745	0.689	0.576
LXF-289	0.919	0.869	0.841	0.962	0.885	0.7	0.638	0.657	0.493	0.964	1	0.943	0.877	0.866	0.905	0.909	0.992
NCI-H2009	1.07	1.05	0.89	1.04	0.988	0.306	0.287	0.25	0.181	1.33	1.18	1.27	0.686	1.11	0.932	1.08	0.869
NCI-H2405	1.1	1.08	0.976	1.11	0.982	0.664	0.643	0.61	0.299	1.04	1.11	1.01	0.628	1.02	0.996	1.08	0.729
NCI-H1755	0.526	0.418	0.459	0.489	0.425	0.834	0.768	0.787	0.469	0.947	0.944	0.813	0.878	0.413	0.461	0.566	0.442
HCC-78	0.915	0.922	0.902	0.887	0.908	0.688	0.712	0.963	0.46	0.564	0.563	0.597	0.575	0.916	0.885	0.88	0.884
LOU-NH91	0.365	0.38	0.393	0.361	0.36	0.805	0.774	0.792	0.726	0.876	0.943	0.976	0.821	0.306	0.359	0.385	0.506
NCI-H3122	0.194	0.201	0.202	0.189	0.182	0.255	0.213	0.225	0.148	1.07	0.968	0.983	0.465	0.215	0.209	0.173	0.176
HCC-827	0.269	0.21	0.296	0.224	0.246	0.488	0.519	0.542	0.28	1.03	0.991	1.03	0.964	0.301	0.247	0.276	0.243
SK-LU-1	1.04	0.937	0.956	0.954	1.01	0.498	0.46	0.416	0.309	0.803	0.794	0.88	0.433	0.99	1	0.998	0.439
NCI-H1975	0.315	0.297	0.302	0.29	0.303	0.339	0.311	0.342	0.165	0.982	0.953	0.863	0.189	0.304	0.302	0.306	0.181
NCI-H1651	0.678	0.534	0.601	0.609	0.54	0.765	0.781	0.871	0.828	0.855	0.786	0.803	0.683	0.677	0.562	0.556	0.744
NCI-H441	0.251	0.27	0.246	0.26	0.297	0.429	0.474	0.32	0.23	1.04	1.01	0.949	0.63	0.283	0.266	0.263	0.198
LCLC-103H	0.505	0.459	0.493	0.439	0.453	0.686	0.682	0.72	0.587	0.773	0.704	0.879	0.677	0.461	0.476	0.437	0.401
LCLC-97TM1	0.173	0.18	0.157	0.156	0.161	0.175	0.173	0.224	0.117	0.859	0.946	0.817	0.437	0.182	0.156	0.152	0.165
